Results on 21 compounds are retold here after patent US9957261B2 (Hoffmann-La Roche Inc., priority 2014, dated 2018).

In assay [1] the target is mouse TAAR1 (Mus musculus (Mouse), UniProt Q923Y8). Kind of assay: Radioligand binding assay on mouse TAAR1. The conditions noted are these: for Ki: mouse TAAR1, membranes of stably transfected HEK-293 cells, first value of mouse/rat pair. As for the experimental part: (§1) Construction of TAAR Expression Plasmids and Stably Transfected Cell Lines
(§2) For the construction of expression plasmids the coding sequences of human, rat and mouse TAAR 1 were amplified from genomic DNA essentially as described by Lindemann et al.. The Expand High Fidelity PCR System (Roche Diagnostics) was used with 1.5 mM Mg^2+ and purified PCR products were cloned into pCR2.1-TOPO cloning vector (Invitrogen) following the instructions of the manufacturer. PCR products were subcloned into the pIRESneo2 vector (BD Clontech, Palo Alto, Calif.), and expression vectors were sequence verified before introduction in cell lines.
(§3) HEK293 cells (ATCC # CRL-1573) were cultured essentially as described by Lindemann et al. (2005). For the generation of stably transfected cell lines HEK293 cells were transfected with the pIRESneo2 expression plasmids containing the TAAR coding sequences (described above) with Lipofectamine 2000 (Invitrogen) according to the instructions of the manufacturer, and 24 hrs post transfection the culture medium was supplemented with 1 mg/ml G418 (Sigma, Buchs, Switzerland). After a culture period of about 10 d clones were isolated, expanded and tested for responsiveness to trace amines (all compounds purchased from Sigma) with the cAMP Biotrak Enzyme immunoassay (EIA) System (Amersham) following the non-acetylation EIA procedure provided by the manufacturer.
Radioligand Binding Assay on Mouse TAAR1
(§4) Membrane Preparation and Radioligand Binding.
(§5) HEK-293 cells stably expressing mouse TAAR1 were maintained at 37° C. and 5% CO2 in DMEM high glucose medium, containing fetal calf serum (10%, heat inactivated for 30 min at 56° C.), penicillin/streptomycin (1%), and 375 μg/ml geneticin (Gibco). Cells were released from culture flasks using trypsin/EDTA, harvested, washed twice with ice-cold PBS (without Ca^2+ and Mg^2+), pelleted at 1′000 rpm for 5 min at 4° C., frozen and stored at −80° C. Frozen pellets were suspended in 20 ml HEPES-NaOH (20 mM, pH 7.4) containing 10 mM EDTA and homogenized with a Polytron (PT 6000, Kinematica) at 14,000 rpm for 20 s. The homogenate was centrifuged at 48,000×g for 30 min at 4° C. Subsequently, the supernatant was removed and discarded, and the pellet resuspended in 20 ml HEPES-NaOH (20 mM, pH 7.4) containing 0.1 mM EDTA using the Polytron (20 s at 14,000 rpm). This procedure was repeated and the final pellet resuspended in HEPES-NaOH containing 0.1 mM EDTA and homogenized using the Polytron. Typically, aliquots of 2 ml membrane portions were stored at −80° C. With each new membrane batch the dissociation constant (Kd) was determined via a saturation curve. […] Nonspecific binding was defined as the amount of ^3[H]—(S)-4-[(ethyl-phenyl-amino)-methyl]-4,5-dihydro-oxazol-2-ylamine bound in the presence of 10 μM unlabeled ligand. All compounds were tested at a broad range of concentrations (10 pM to 10 μM) in duplicates. […] The 96 deep well plates were incubated for 1 hr at 4° C. Incubations were terminated by rapid filtration through Unifilter-96 plates (Packard Instrument Company) and glass filters GF/C (Perkin Elmer) presoaked for 1 hr in polyethylenimine (0.3%) and washed 3 times with 1 ml of cold binding buffer. After addition of 45 μl of Microscint 40 (PerkinElmer) the Unifilter-96 plate was sealed and after 1 hr the radioactivity counted using a TopCount Microplate Scintillation Counter (Packard Instrument Company).

Assay [2] deals with rat TAAR1 (Rattus norvegicus (Rat), UniProt Q923Y9). Kind of assay: Radioligand binding assay on rat TAAR1. The conditions noted are these: for Ki: rat TAAR1, membranes of stably transfected HEK-293 cells, second value of mouse/rat pair. The protocol: as §1, §2, §3
Radioligand Binding Assay on Rat TAAR1
as §4
as §5, with “rat” for “mouse”, “[H]—(S)-4-[(ethyl-phenyl-amino)-methyl]-4,5-dihydro-oxazol-2-ylamine” for “^3[H]—(S)-4-[(ethyl-phenyl-amino)-methyl]-4,5-dihydro-oxazol-2-ylamine”

Sequence of mouse TAAR1 (Q923Y8 whole entry): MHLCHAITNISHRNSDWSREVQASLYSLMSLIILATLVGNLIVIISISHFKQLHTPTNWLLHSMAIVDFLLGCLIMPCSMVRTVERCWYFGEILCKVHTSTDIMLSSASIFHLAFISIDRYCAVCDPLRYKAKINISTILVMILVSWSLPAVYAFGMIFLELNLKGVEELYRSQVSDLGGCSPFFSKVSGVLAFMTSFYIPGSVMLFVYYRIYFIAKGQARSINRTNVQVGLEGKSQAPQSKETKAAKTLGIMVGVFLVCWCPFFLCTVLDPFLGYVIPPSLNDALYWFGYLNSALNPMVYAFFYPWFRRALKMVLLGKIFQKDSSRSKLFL
Sequence of rat TAAR1 (Q923Y9 whole entry): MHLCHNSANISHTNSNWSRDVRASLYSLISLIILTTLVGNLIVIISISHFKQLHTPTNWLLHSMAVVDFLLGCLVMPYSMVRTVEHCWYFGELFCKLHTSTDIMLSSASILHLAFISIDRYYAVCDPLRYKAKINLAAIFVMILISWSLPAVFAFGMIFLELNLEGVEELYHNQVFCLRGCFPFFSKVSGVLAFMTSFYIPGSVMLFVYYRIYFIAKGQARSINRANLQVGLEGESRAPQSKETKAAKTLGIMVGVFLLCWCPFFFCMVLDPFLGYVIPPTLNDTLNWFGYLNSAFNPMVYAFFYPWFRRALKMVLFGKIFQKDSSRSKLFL

On to `CCN(C[C@H]1COC(N)=N1)c1ccccc1` [(S)-4-[(ethyl-phenyl-amino)-methyl]-4,5-dihydro-oxazol-2-ylamine, reference compound], for which the Kd in assay [1] (mouse TAAR1 membranes, saturation curve, read-out: dissociation constant (Kd) of the radioligand) was roughly 0.7 nM; in assay [2] (rat TAAR1 membranes, saturation curve, read-out: dissociation constant (Kd) of the radioligand), roughly 2.3 nM.

Turning to `NC1CCc2cc(NC(=O)c3ccnc(C(F)(F)F)c3)ccc2C1` (centres unmarked) [Example 1, N-(6-Amino-5,6,7,8-tetrahydronaphthalen-2-yl)-2-(trifluoromethyl)isonicotinamide], the Ki in assay [1] is 0.0159 µM; in assay [2], 0.0072 µM.

As to `NC1CCc2cc(NC(=O)c3n[nH]c(C4CC4)c3Br)ccc2C1` (centres unmarked) [Example 2, N-(6-Amino-5,6,7,8-tetrahydronaphthalen-2-yl)-4-bromo-5-cyclopropyl-1H-pyrazole-3-carboxamide], the Ki in assay [1] stood at 0.0077 µM; in assay [2], 0.0042 µM.

`CCCc1cc(C(=O)Nc2ccc3c(c2)CCC(N)C3)nn1CC(F)F` (centres unmarked) [Example 3, N-(6-Amino-5,6,7,8-tetrahydronaphthalen-2-yl)-1-(2,2-difluoroethyl)-5-propyl-1H-pyrazole-3-carboxamide]: the Ki in assay [1] came out at 0.0132 µM; in assay [2], 0.0035 µM.

As to `CCCc1cc(C(=O)Nc2ccc3c(c2)CC[C@@H](N)C3)nn1CC(F)F` [Example 4, (R)—N-(6-Amino-5,6,7,8-tetrahydronaphthalen-2-yl)-1-(2,2-difluoroethyl)-5-propyl-1H-pyrazole-3-carboxamide], the Ki in assay [1] was found to be 0.0914 µM; in assay [2] it was 0.0055 µM.

In the case of `CCCc1cc(C(=O)Nc2ccc3c(c2)CC[C@H](N)C3)nn1CC(F)F` [Example 5, (S)—N-(6-Amino-5,6,7,8-tetrahydronaphthalen-2-yl)-1-(2,2-difluoroethyl)-5-propyl-1H-pyrazole-3-carboxamide], the Ki was determined as 0.0067 µM in assay [1] and 0.0021 µM in assay [2].

On to `Cc1cc(C(=O)Nc2ccc3c(c2)CC[C@@H](N)C3)nc(C(F)(F)F)n1` [Example 6, (R)—N-(6-Amino-5,6,7,8-tetrahydronaphthalen-2-yl)-6-methyl-2-(trifluoromethyl)-pyrimidine-4-carboxamide], for which the inhibition constant Ki in assay [1] came to 0.232 µM; in assay [2] it was 0.0544 µM.

As for `Cc1cc(C(=O)Nc2ccc3c(c2)CC[C@H](N)C3)nc(C(F)(F)F)n1` [Example 7, (S)—N-(6-Amino-5,6,7,8-tetrahydronaphthalen-2-yl)-6-methyl-2-(trifluoromethyl)-pyrimidine-4-carboxamide], the Ki in assay [1] came to 0.0318 µM; in assay [2], 0.0198 µM.

As to `CCCc1cc(C(=O)Nc2ccc3c(c2)OCC(N)C3)nn1CC(F)F` (centres unmarked) [Example 8, N-(3-Aminochroman-7-yl)-1-(2,2-difluoroethyl)-5-propyl-1H-pyrazole-3-carboxamide], the Ki in assay [1] is 0.0198 µM; in assay [2] it was 0.01 µM.

Regarding `Cc1cc(C(=O)Nc2ccc3c(c2)OCC(N)C3)nc(C(F)(F)F)n1` (centres unmarked) [Example 9, N-(3-Aminochroman-7-yl)-6-methyl-2-(trifluoromethyl)pyrimidine-4-carboxamide], the Ki was 0.0805 µM in assay [1] and 0.114 µM in assay [2].

Regarding `CCCc1cc(C(=O)Nc2ccc3c(c2)OC[C@H](N)C3)nn1CC(F)F` [Example 10, (R)—N-(3-Aminochroman-7-yl)-1-(2,2-difluoroethyl)-5-propyl-1H-pyrazole-3-carboxamide], the Ki turned out to be 0.0111 µM in assay [1] and 0.0034 µM in assay [2].

On to `CCCc1cc(C(=O)Nc2ccc3c(c2)OC[C@@H](N)C3)nn1CC(F)F` [Example 11, (S)—N-(3-Aminochroman-7-yl)-1-(2,2-difluoroethyl)-5-propyl-1H-pyrazole-3-carboxamide], for which the Ki came out at 0.187 µM in assay [1] and 0.0096 µM in assay [2].

As for `Cc1cc(C(=O)Nc2ccc3c(c2)OC[C@H](N)C3)nc(C(F)(F)F)n1` [Example 12, (R)—N-(3-Aminochroman-7-yl)-6-methyl-2-(trifluoromethyl)pyrimidine-4-carboxamide], the Ki in assay [1] was determined as 0.0581 µM; in assay [2], 0.0436 µM.

`Cc1cc(C(=O)Nc2ccc3c(c2)OC[C@@H](N)C3)nc(C(F)(F)F)n1` [Example 13, (S)—N-(3-Aminochroman-7-yl)-6-methyl-2-(trifluoromethyl)pyrimidine-4-carboxamide]: the Ki in assay [1] is 1.45 µM; in assay [2], 0.241 µM.

Turning to `N[C@@H]1CCc2cc(NC(=O)c3ccc(Cl)cc3)ccc2C1` [Example 14, (R)—N-(6-Amino-5,6,7,8-tetrahydronaphthalen-2-yl)-4-chlorobenzamide], the Ki was 0.0092 µM in assay [1] and 0.0069 µM in assay [2].

For `N[C@@H]1CCc2cc(NC(=O)c3ccccc3Cl)ccc2C1` [Example 15, (R)—N-(6-Amino-5,6,7,8-tetrahydronaphthalen-2-yl)-2-chlorobenzamide], the values for the Ki in assay [1] and in assay [2] were 1.97 µM and 0.6 µM, respectively.

In the case of `N[C@H]1CCc2cc(NC(=O)Nc3ccc(C(F)(F)F)nc3)ccc2C1` [Example 16, (S)-1-(6-Amino-5,6,7,8-tetrahydronaphthalen-2-yl)-3-(6-(trifluoromethyl)pyridin-3-yl)urea], the Ki in assay [1] amounted to 0.0045 µM; in assay [2] it was 0.0023 µM.

Take `Cc1cc(C(=O)Nc2ccc3c(c2)CC[C@H](N)C3)ccn1` [Example 17, (S)—N-(6-Amino-5,6,7,8-tetrahydronaphthalen-2-yl)-2-methylisonicotinamide]: the Ki in assay [1] was 0.111 µM; in assay [2], 0.147 µM.

Regarding `CC(=O)Nc1cc(C(=O)Nc2ccc3c(c2)CC[C@H](N)C3)ccn1` [Example 18, (S)-2-Acetamido-N-(6-amino-5,6,7,8-tetrahydronaphthalen-2-yl)isonicotinamide], the Ki in assay [1] stood at 0.71 µM; in assay [2], 0.232 µM.

Consider `CCOc1cc(C(=O)Nc2ccc3c(c2)CC[C@H](N)C3)ccn1` [Example 19, (S)—N-(6-Amino-5,6,7,8-tetrahydronaphthalen-2-yl)-2-ethoxyisonicotinamide], for which the Ki in assay [1] turned out to be 0.0187 µM; in assay [2] it was 0.0216 µM.

For `N[C@H]1CCc2cc(NCc3ccc(Cl)cc3)ccc2C1` [Example 75, (S)—N6-(4-Chlorobenzyl)-1,2,3,4-tetrahydronaphthalene-2,6-diamine], in assay [1], the affinity, expressed as Ki, was 0.0048 µM.
